The source of these data is paper PMC6152192, “Novel Methylselenoesters as Antiproliferative Agents” (Molecules : A Journal of Synthetic Chemistry and Natural …, 2017).

Data set [1] deals with K-562 (chronic myelogenous leukemia). In words: MTT viability assay, K-562. In kind it is cell-based. The note with it: K-562, 72 h, MTT; for CC50: read-out: LC50 (the source's name). The essentials:
(§1)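 Cells (10,000/well; RPMI or, for BEAS-2B, DMEM with 10% FBS; 37 °C, 5% CO2) were treated 72 h with six concentrations from 0.1 to 100 μM, diluted from 0.01 M DMSO stock. MTT was added for 4 h, formazan dissolved in DMSO, absorbance read at 550 nm; GI50, TGI and LC50 derived.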
For orientation: Formazan colour is commonly taken as a measure of viable cells.

The test system of data set [2] is thioredoxin reductase (TrxR1). Briefly: Thioredoxin reductase activity assay (NADPH consumption). The note with it: 100 nM TrxR1, 227 μM NADPH, TE buffer pH 8, 45 min. In kind it is biochemical. As for the experimental part:
The assay was performed as previously described, but in a final volume of 200 μL in a 96-well plate. Reaction started after addition of 133 μL of TE buffer (20 mM Tris, 2 mM EDTA, pH = 8), 0.227 mM NADPH (freshly prepared) to different concentrations of compounds solved in DMSO and TrxR1 (final concentration 100 nM). NADPH consumption was followed measuring absorbance decrease at 340 nm in a VersaMax microplate reader (Molecular Devices, Sunnyvale, CA, USA) over 45 min. A background sample with DMSO without the compounds was included and subtracted from the values.
Figure 7 Compounds 5 and 15 are substrates for thioredoxin reductase but not for the glutathione-glutaredoxin system. (A) NADPH consumption indicating reduction of compounds 5, 15 or MSA as control by thioredoxin reductase. The reaction mixture contained 100 nM TrxR1, 227 μM NADPH and the corresponding amount of compound in TE buffer (20 mM Tris, 2 mM EDTA pH = 8); (B) NADPH consumption indicating reduction of MSA by glutathione in the presence or absence of glutaredoxin. The reaction mixture contained the corresponding amount of compound, 0.1 M Tris, 2 mM EDTA pH = 8, 0.1 mg/mL BSA, 1 mM GSH, 200 μM NADPH, 0.008 OD/mL yeast GR and 1 μM hGrx1 when required. Only results for MSA are shown, as compounds 5 and 15 were not reduced.

In data set [3] the test system is PC-3 (prostate adenocarcinoma). Briefly: MTT viability assay, PC-3. The format is cell-based. The following applies: PC-3, 72 h, MTT; for CC50: read-out: LC50 (the source's name). The essentials: as §1
Another data set deals with MCF7 cells. In words: Caspase and autophagy inhibitors assay (Z-VAD-FMK, wortmannin; TUNEL). In kind it is cell-based. The following applies: MCF7, 50 μM Z-VAD-FMK 1 h pre-incubation, compound 5 25 μM or compound 15 30 μM, 48 h. As for the experimental part:
Se compounds induce different types of cell death, among which apoptosis and autophagy are the most common. To further elucidate the pathway through which compounds 5 and 15 trigger cell death, we used Z-VAD-FMK, a pan-caspase inhibitor and wortmannin, a PI3K inhibitor which blocks autophagy. MCF7 cells were pre-incubated for 1 h with 50 μM of Z-VAD-FMK or 100 nM wortmannin and co-incubated with compound 5 (25 μM), compound 15 (30 μM) or vehicle (control) for 48 h. Treated cells without inhibitors were also included.
2 × 10^6 MCF7 cells were seeded in 25 cm^2 flasks. After 24 h, cells were pre-treated with 50 μM of the pan-caspase inhibitor Z-VAD-FMK (BD Pharmingen) or 100 nM wortmannin (Santa Cruz Biotechnology, Heidelberg, Germany) for 1 h before co-incubating them with 25 μM of compound 5, 30 μM of compound 15 or vehicle (maximum amount of DMSO used in the treatments) for 48 h. Cells were collected and processed with the Apo-Direct kit as described previously.
Figure 6 Cell death induced by compounds 5 and 15 involves the caspases pathway. MCF7 cells were pre-incubated with 50 μM of Z-VAD-FMK or 100 nM wortmannin for 1 h before treating cells with compound 5 (25 μM), compound 15 (30 μM) or vehicle (control) for 48 h. Cells were stained with the Apo-Direct kit (TUNEL assay) and analyzed by flow cytometry. […]

Regarding “Dimethyl 2,5-furandicarboselenoate [Compound 15]”, in data set [1], the GI50 was found to be 42 ± 3.8 µM, the TGI stood at 70.6 ± 3.4 µM and the CC50 was found to be 99.2 ± 5.3 µM. For the same substance, the “reduction by TrxR1 (NADPH consumption)” value in data set [2] is on record as “substrates only for TrxR1”. Also, in data set [3], the GI50 was 4.8 ± 0.8 µM and the CC50 was determined as 47.8 ± 4.4 µM. In the data set with MCF7 cells, the “decrease of cell death in the presence of the pan-caspase inhibitor Z-VAD-FMK” value turned out to be 14%.
For the substance “Methyl 3-chlorothiophen-2-carboselenoate [Compound 5]”, in data set [1], the GI50 was found to be 38.7 ± 2.1 µM, the TGI came to 67.0 ± 1.9 µM and the CC50 is 95.2 ± 2.2 µM. Besides, the “reduction by TrxR1 (NADPH consumption)” value in data set [2] was “substrates only for TrxR1”. Moreover, in data set [3], the 50% growth inhibitory concentration (GI50) came out at 8.6 ± 1.7 µM, the total growth inhibition concentration (TGI) was 47.7 ± 2.9 µM and the CC50 is 91.6 ± 3.9 µM. Also, the “decrease of cell death in the presence of the pan-caspase inhibitor Z-VAD-FMK” value with MCF7 cells amounted to 36%.

By GI50 is commonly meant the concentration at which growth is held to half of that of the control. In general, TGI refers to the concentration at which net growth stops. A higher TGI goes with less potent growth arrest.
